Assay results: patent US20120046273A1, “COMPOUNDS AND COMPOSITIONS FOR COGNITION-ENHANCEMENT, METHODS OF MAKING, AND METHODS OF TREATING” (MITHRIDION, INC., priority 2009, published 2012)

Columns and labels:
[1] = tested on: A-beta 1-40 and A-beta 1-42; assay: A-beta in hippocampal microdialysate; format: in vivo, Tg-2576 transgenic mice; conditions: Tg-2576 mice
Description: These mice have high concentrations of A-beta in their brain tissue, thought to be the cause of neuron death in Alzheimer's disease, and accumulate amyloid plaques, recapitulating one of the hallmark pathological features of Alzheimer's disease.

anesthetized normal rats = assay: In vivo measurement of salivation; set-up: species or system rat; conditions: anesthetized normal rats, dose-dependent between about 0.1 mg/kg and 1 mg/kg
Description: Suitable doses of test compounds or drug substances were administered using standard techniques to Long Evans Hooded rats weighing 225 to 350 grams, or CD-1 mice weighing 30 to 50 grams, which had been anesthetized using 2-3.5%% of isoflurane in oxygen. The animals were placed slightly head-down on an inclined, heated ramp. Rectal temperature was monitored using a thermocouple and the temperature of the heating pad was adjusted manually to maintain normal body temperature. Saliva was collected from the mouth by absorption onto pre-weighed slips of filter paper. The filter paper was changed periodically and the amount of saliva was measured by weighing the filter paper slips

[2] = tested on: apomorphine induced climbing; assay: Apomorphine induced climbing model of psychosis; format: in vivo, CD-I mice
In short: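 CD-I mice (1-2 months) dosed subcutaneously under isoflurane with compound or PBS vehicle (PBS or 96% PBS/4% hydroxypropyl-beta-cyclodextrin, 5 ml/kg), then 2 mg/kg apomorphine 5 min later. Climbing (≥3 paws off ground) in wire mesh cylinders scored for 1 min every 5 min over 60 min after dosing.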

[3] = tested on: hippocampal inositol phosphate signaling pathway; assay: In vivo tissue inositol phosphate signaling pathway activation, hippocampus; set-up: species or system rat; conditions: normal rats, dose-dependent in the dose range 0.03 mg/kg to at least 3 mg/kg
Description: Experimental compounds or drug substances were administered using standard techniques to Long Evans Hooded rats weighing 225 to 350 grams, and which had been pretreated with a subcutaneous injection of lithium chloride at a suitable dose between 3 and 10 mmoles per kg. At suitable times the animals were briefly anesthetized using 5% isoflurane and euthanized by decapitation. The brains and submaxillary salivary glands were rapidly dissected out, and the hippocampuses were dissected from the brains. The dissected tissues were homogenized in a suitable volume of ice-cold phosphate-buffered saline containing 10 mM lithium chloride, pH7.4, using a tissue homogenizer, and used immediately or frozen in aliquots at −80degC. for future use. The concentration of inositol-1-phosphate was determined in the homogenates using the IPOne TR-FRET assay (CisBio cat no 621PAPEB), following the manufacturer's instruction

[4] = target: T1, human muscarinic M3 receptors (Homo sapiens, UniProt P20309); assay: Inositol phosphate production in huM3/A9L cells (IPOne TR-FRET); format: cell-based
T1 construct: expressed in transfected cells; host or cells: A9L cells (gift from Professor W Messer)
T1 sequence (P20309 whole entry): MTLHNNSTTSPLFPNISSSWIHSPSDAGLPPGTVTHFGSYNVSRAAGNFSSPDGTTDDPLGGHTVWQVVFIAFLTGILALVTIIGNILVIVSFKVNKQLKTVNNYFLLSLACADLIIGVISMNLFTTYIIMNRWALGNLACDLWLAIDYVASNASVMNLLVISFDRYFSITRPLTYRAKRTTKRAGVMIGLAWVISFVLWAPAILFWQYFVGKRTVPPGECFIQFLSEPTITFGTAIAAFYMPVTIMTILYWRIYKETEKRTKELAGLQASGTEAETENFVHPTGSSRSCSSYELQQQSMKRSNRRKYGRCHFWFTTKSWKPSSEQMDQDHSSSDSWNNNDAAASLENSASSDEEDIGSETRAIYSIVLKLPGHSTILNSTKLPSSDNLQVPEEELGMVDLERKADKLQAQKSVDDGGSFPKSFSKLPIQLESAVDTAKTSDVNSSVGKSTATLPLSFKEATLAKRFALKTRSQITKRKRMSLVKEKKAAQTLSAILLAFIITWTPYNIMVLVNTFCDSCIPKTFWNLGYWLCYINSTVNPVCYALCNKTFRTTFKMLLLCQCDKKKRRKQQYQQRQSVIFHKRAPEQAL
Description: (§1) Muscarinic M1 and M3 agonist activity was evaluated by measuring the stimulation of inositol phosphate (IP) production in the presence of lithium chloride from A9L cells transfected with expression plasmids containing human muscarinic M1 and M3 receptors, respectively. The cell lines were a gift from Professor W Messer, and the methods were as described in Tejada F R et al. J. Med. Chem. 2006; 49: 7518-31 except that the assay was scaled down to run in 384 well plates, and IP was measured in the cell lysates using the non-isotopic IPOne TR-FRET assay (CIS-BIO, Inc).
(§2) Cells were grown to 90% confluence in 384 well hi-base plates (Greiner Bio-One), compounds were added at suitable concentrations in growth medium containing 10 mM LiCL, buffered with an extra 10 mM HEPES (pH7.4), and incubated for 60 minutes at 37° C. Cells were lysed and assayed for IP following the manufacturer's instructions.
(§3) The value for a full agonist is 100%, while partial agonists give values below 100%.

in vivo = conditions: rat, po
[5] = tested on: pooled male Sprague-Dawley rat liver microsomes; assay: Metabolism by rat liver microsomes; format: in vitro ADME; conditions: 6 hours incubation
Description: Compounds were incubated with pooled male Sprague-Dawley rat liver microsomes (BD Biosciences, #452501) and an NADP-regenerating system in a phosphate buffer (pH 7.4) for a total of 6 hours. Aliquots were removed every 2 hours, and 1% formic acid was added to halt the reaction. Samples were centrifuged, filtered through 0.2 micron spinfilter and the amount of each compound in the supernatants was quantitated using LC/MS/MS.

[6] = target: T2, human muscarinic M1 receptors (Homo sapiens, UniProt P11229); assay: Inositol phosphate production in huM1/A9L cells (IPOne TR-FRET); format: cell-based
T2 construct: expressed in transfected cells; host or cells: A9L cells (gift from Professor W Messer)
T2 sequence (P11229 1-460): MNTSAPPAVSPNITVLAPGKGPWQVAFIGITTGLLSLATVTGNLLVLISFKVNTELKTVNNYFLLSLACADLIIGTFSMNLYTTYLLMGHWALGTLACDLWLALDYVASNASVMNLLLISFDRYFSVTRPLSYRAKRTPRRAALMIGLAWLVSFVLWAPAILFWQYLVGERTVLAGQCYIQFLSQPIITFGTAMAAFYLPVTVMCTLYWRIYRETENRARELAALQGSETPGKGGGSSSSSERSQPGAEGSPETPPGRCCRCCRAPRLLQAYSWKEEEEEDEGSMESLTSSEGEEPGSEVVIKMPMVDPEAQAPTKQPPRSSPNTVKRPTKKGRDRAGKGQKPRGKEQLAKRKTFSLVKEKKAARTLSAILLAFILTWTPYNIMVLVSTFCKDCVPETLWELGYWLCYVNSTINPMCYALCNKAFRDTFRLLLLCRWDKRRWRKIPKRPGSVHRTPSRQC
Description: as §1, §2, §3

[7] = percentage of maximal stimulation by carbachol

With Cc1noc(C2CCCNC2)n1 (racemic) [Compound 82, 3-Methyl-5-(piperidin-3-yl)-1,2,4-oxadiazole] the “reduction of the concentration of A-beta 1-40” value [1] was “approximately 40%”, the “reduction of the concentration of A-beta 1-42” value [1] was “approximately 40%” and the salivation side effect (anesthetized normal rats) was “causes salivation”. For the same compound, the “Climbing Mean” value ([2]; 82 (0.1 mg/kg) + APO) was 8.9 s, the “Climbing Mean” value ([2]; 82 + APO + N-Methyl Scopolamine (0.3 mg/kg)) was 12.3 s and the “Climbing Mean” value ([2]; 82 + APO + scopolamine (0.3 mg/kg)) was 47.0 s. For the same compound, the “activity in the apomorphine induced climbing model” value ([2]; mice, sc) was “highly active and highly potent”, the “potency in inhibiting climbing compared with haloperidol” value ([2]; mice, sc) was “equipotent to haloperidol” and the “hippocampal IP response” value [3] was “causes an increase in the hippocampal IP response”. The “huM3/A9L Smax” value [4, 7] was 54%, the “huM3/A9L ED50 relative to CCh” value ([4]; potency relative to carbachol) was “+/− (potency 0.5-2x CCh)” and the Kp at 1 hour (in vivo) was 2.38. For the same compound, the “extent of metabolism in rat liver microsomes” value [5] was “far more stable than compounds 126 and 127”, the “huM1/A9L Smax” value [6, 7] was 108% and the “huM1/A9L ED50 relative to CCh” value ([6]; potency relative to carbachol) was “+ (potency 2-10x CCh)”. The “PAMPA (? × 106)” value was 2.56 ? × 106 and the “rate of crossing the lipid layer in the PAMPA test” value was “much higher rate”.
